Results on two compounds are retold here after patent publication US11311508B2, “Medicinal composition for preventing or treating secondary hyperparathyroidism under maintenance dialysis” (EA Pharma Co., Ltd., priority 2017, dated 2022).

Structures can show the parent of a compound that is named as a salt.

For data set [1], the system named is SHPT patients on maintenance hemodialysis. Nature of the data set: Phase I/II clinical trial, single intravenous administration. The data set is classed as in vivo, human. The procedure: (§1) Targeting SHPT patients on maintenance hemodialysis, pharmacokinetics, pharmacodynamics and safety upon single or repeated intravenous administration of Compound A1 were examined by conducting a double-blind test using a placebo as a control.
(§2) Single administration: Based on the clinically effective dose calculated in Example 5, the doses were given at 0.025 mg, 0.05 mg, 0.1 mg, 0.2 mg, 0.4 mg, 0.6 mg and 0.8 mg (7 steps). On the day of trial drug administration, the trial drug was intravenously administered as slow as possible within 60 seconds 2 to 4 hours following the end of dialysis. Here, the trial drug was administered by diluting a required dose taken from the Compound A1 vial formulation prepared as follows with sterilized water for injection, and filling a syringe with the resultant in accordance with the dose to be administered.
(§3) Each item was evaluated according to the predetermined evaluation schedule.
(§4) A vial formulation encapsulating 1 mg of Compound A1 in terms of a dehydrate, and sodium chloride, disodium hydrogen phosphate dodecahydrate and sodium dihydrogen phosphate dihydrate as additives in 10 ml of sterilized water for injection

Test in data set [2]: as above
Conditions: human, plasma, iv; single i.v. 0.025-0.8 mg; read-out: t½. The data set is classed as in vivo, human. The procedure: as §1, §2, §3, §4

In data set [3] the test system is SHPT patients on maintenance hemodialysis. Nature of the data set: Phase I/II clinical trial, repeated intravenous administration. The data set is classed as in vivo, human. The procedure: as §1
Repeated administration: Based on the clinically effective dose calculated in Example 5, the doses were given in 3 steps, namely, 0.05 mg, 0.1 mg and 0.2 mg. The trial drug was (intravenously) infused from the venous side of the dialysis circuit before the end of dialysis three times a week for 22 days (total of 9 times) starting from the first day of administration of the trial drug. Here, the trial drug was administered by diluting a required dose taken from the Compound A1 vial formulation prepared as follows with sterilized water for injection, and filling a syringe with the resultant in accordance with the dose to be administered.
as §3, §4

The nature of data set [4]: Emetogenicity in dogs (crossover, intravenous bolus). Conditions: male, beagle, dog, in vivo, 1 mg/kg (no vomiting case). The procedure: A crossover trial was conducted with male beagles (Nosan Beagle, 14-87-month-old, weight: 10.2 kg-15.8 kg). The Compound A1 solutions used in Example 2 were given at 0.3, 1 and 10 mg/kg by bolus administration (0.5 mL/kg, 1 mL/sec) to 3-6 dogs per dose to confirm the manifestation of vomiting immediately after the administration. Administration was conducted once or twice a week with a 2-day interval. Administration was conducted prior to feeding. Symptoms prior to, immediately after, and 15 and 30 minutes after the administration were observed.

For data set [5], the system named is bilaterally nephrectomized rats. Nature of the data set: Survival of bilaterally nephrectomized rats after single doses. As to conditions: five rats per group. The data set is classed as in vivo, rat. From the text:
After quarantine and acclimatization periods of 6 days, fifty-one 7-week-old rats (Crl: CD (SD), male) were fed a 100% sucrose diet ad libitum from four days before the surgery. On the day of the surgery, skin incisions were made on the back at the sites of the right and left kidneys under isoflurane anesthesia and the renal capsules were removed to ligate the renal arteries and veins and the ureters using threads before removing the right and left kidneys. A penicillin solution was given upon suturing, and 5 mL of physiological saline was intraperitoneally administered before returning the rats into the breeding cages.
On a day after the bilaterally nephrectomy, the given doses were calculated based on the weight of the selected animals on that day. Group 1 was given a medium (physiological saline), Groups 2, 3 and 4 were given the Compound A1 solution (0.3, 3 and 30 mg/mL, respectively), and Groups 5, 6, 7 and 8 (5 rats per group) were given the comparative compound (0.3, 1, 3 and 10 mg/mL, respectively), each given a single dose of 1 ml/kg from the tail vein. Prior to the administration (0 hour), and 24 and 48 hours after the administration, approximately 300 μL of blood was collected without anesthesia from the tail vein using capillary tubes for obtaining the serum. The blood for obtaining the serum was left to stand at room temperature, and centrifuged in a high speed refrigerated microcentrifuge (10000 rpm, 5 min, 4° C.) within a period of 30 minutes to 2 hours after the blood collection to collect the serum.
The number of rats in each group was five prior to the administration.

Another data set can be described thus: in vivo. As to conditions: Crl:CD(SD), rat, iv, 30 mg/kg. The procedure:
The mean±standard error of the serum iPTH concentrations of all individuals prior to the administration (0 hour) was 231±16 pg/ml.
Logistic curve fitting was conducted to establish the response relationship between the serum iPTH concentration 48 hours after the administration and the given dose.

The subject of data set [6] is patients with renal failure. Nature of the data set: Estimation of EC50, PK and clinically effective dose in patients with renal failure. Conditions: scaling factor applied to healthy adult EC50. On the set-up: species or system human. From the text: (§5) EC50 value in patient with renal failure was estimated based on the calculated EC50 value in healthy adults and the results from the same analysis in normal rats and adenine-treated rat models (pathological rat models). […] Since the difference in the EC50 value between rats in normal state and pathological state is presumed to be caused by the changes in PK that are considered to greatly vary between normal state and pathological state, similar tendency is expected in human as well.
The result from PK fitting, and the contribution rate of renal elimination of the drug (3.2%) calculated using PK-sim (registered trademark) were used to simulate PK prediction in the patients with renal failure. […] As a result, administration of a dose of 0.06 mg/man was estimated to maintain a concentration higher than 1.4 ng/ml for 72 hours (FIG. 8).

Data set [7] has as its system healthy Japanese male adults. Nature of the data set: Phase I clinical trial (P1), single intravenous dose. The data set is classed as in vivo, human. The procedure:
Thirty-two healthy Japanese male adults were given a single intravenous dose of the test drug (Compound A1) at 0.01 mg, 0.1 mg, 1.0 mg or 2.5 mg in a fasted state to study the pharmacokinetics, pharmacodynamics and safety by a double-blind test using a placebo as a control. Here, the trial drug was administered by diluting a required dose taken from the Compound A1 vial formulation prepared as follows with sterilized water for injection, and filling a syringe with the resultant in accordance with the dose to be administered.
A vial formulation encapsulating 100 mg of Compound A1 in terms of a dehydrate, and sodium chloride, disodium hydrogen phosphate dodecahydrate and sodium dihydrogen phosphate dihydrate as additives in 10 ml of sterilized water for injection

A further data set concerns normal rats. Nature of the data set: PK/PD analysis (EC50) in normal rats. The data set is classed as in vivo. As to conditions: Rattus norvegicus, same PK/PD analysis.
From the text: as §5

In another data set the test system is normal rat. The data set is described as follows: Non-clinical studies of excretion and elimination. The data set is classed as in vivo. From the text: Compound A1 is a CaSR activator used for intravenous administration.
The nature of data set [8]: PK/PD analysis of P1 (three-compartment model, indirect response model incorporating rebound). The data set is classed as in vivo, human. Conditions: male, human, plasma, intravenous. The procedure:
(§6) A PK/PD analysis was conducted to estimate the clinically effective dose based on the results from P1. The dose of 2.5 mg seemed to be excessive and thus was eliminated from the analysis. PK (mean plasma concentration) and PD (mean iPTH level normalized by the levels of the placebo group and the 0-hour level) data of the doses of 0.01 mg, 0.1 mg and 1 mg were used. An indirect response model incorporating rebound was used for the PK/PD analysis.
(§7) Based on the results of PK of the three given doses (0.01 mg, 0.1 mg and 1 mg) in P1, the three given doses were simultaneously analyzed using a three-compartment model to calculate the PK parameters (FIG. 5 and Table 2).
(§8) Using the calculated PK parameters as an input function, PK/PD analysis was performed using an indirect response model incorporating rebound (FIG. 6) to calculate the EC50 value in healthy adults (FIG. 7 and Table 3).

In the next data set the test system is healthy adults. The description is as above. The data set is classed as in vivo, human. As to conditions: Homo sapiens; iPTH decrease, healthy adults, indirect response model incorporating rebound; ± standard error. The procedure: as §6, §7, §8
The subject of data set [9] is adenine-treated rat models. Nature of the data set: PK/PD analysis (EC50) in adenine-treated rat models. The data set is classed as in vivo. As to conditions: adenine-treated rat models (pathological rat models), same PK/PD analysis.
From the text: as §5

By EC50 is commonly meant the concentration giving half of the maximal effect. Higher therefore signals a less potent agent. As usually defined, the Vd is a proportionality between amount in the body and measured concentration, not a real space. A low value points to little distribution into tissue. As for `Cc1c(Cl)cc(S(=O)(=O)[O-])cc1NC(=O)NC[C@H](N)C(=O)O.[Na+]` [Compound A1, sodium 3-{[(2S)-2-amino-2-carboxyethyl]carbamoylamino}-5-chloro-4-methylbenzenesulfonate], the “lowering of plasma concentration immediately after dialysis vs just before the dialysis” value in data set [1] (hemodialysis performed 66 hours after the administration) is recorded as 75-81%. In data set [1] (single administration), the “nausea observed (non-severe and mild)” value was “in the 0.6 mg and higher dose groups”; the “vomiting observed (non-severe and mild)” value is “in the 0.4 mg and higher dose groups”. Also, the “duration of serum iPTH lowering effect after the administration” value in [1] (single administration, until just before the dialysis) is reported as “up to 66 hours”. For the same compound, the half-life in data set [2] was in the range of 65 to 122 h. For the same compound, in data set [3], the accumulating property entry is reported as “has not no accumulating property” and the “trough concentration in plasma before the dialysis following the longest interval” value is on record as “generally constant”. The “maintenance of serum iPTH lowering effect” value in [3] (test period) was “maintained its effect with repeated administration”. The “form present in the plasma” value in [3] (three times a week for 22 days) is listed as “present mainly as an unchanged substance”. Further, in [4], the C0 was 18.8 µM. Further, in data set [5] (all administered groups (0.3, 3 and 30 mg/kg)), the “survival 48 hours after the administration” value was “all five rats survived”. In addition, the concentration at 48 h in the data set “in vivo” amounted to 18800 ng/mL. The “EC50 value estimated in the patients with renal failure” value in data set [6] was over 0.0014 µg/mL. Besides, in data set [7] (single i.v. 0.01, 0.1, 1.0 and 2.5 mg), the elimination from plasma entry was “rapidly eliminated”. Also, in [7] (single i.v. dose), the “safety (side effects)” value is “non-severe and mild side effects such as vomiting were observed in the 1.0 mg and higher dose groups”; the “serum iPTH concentration compared to before the administration” value is “decreased in the 0.01 mg and higher dose groups”. The “excretion into the urine” value in data set [7] (with respect to the given dose) is on record as “excreted into the urine mostly as unchanged substances”. Also, the EC50 in the data set on normal rats is under 0.0229 µg/mL. The “elimination from the plasma” value in the data set with normal rat (intravenously administered to a normal rat) is recorded as “rapidly eliminated from the plasma”. In the data set on normal rat (non-clinical studies), the “main route of excretion” value is “renal excretion is the main route of excretion”. This compound returned a Vd in data set [8] (three-compartment model, doses 0.01, 0.1, 1 mg, ± standard error) of 0.0909 ± 0.0114 L/kg. In data set [8] (assumed effective dose 0.1 mg/man, from simultaneous fitting of all doses), the C0 turned out to be 0.0436 µM. Moreover, the EC50 in the data set with healthy adults was 0.000421 ± 0.000167 µg/mL. In addition, the half-maximal effective concentration (EC50) in data set [9] amounted to 0.0748 µg/mL.

As to `CC(=O)N[C@H](CSSC[C@H](N)C(=O)O)C(=O)N[C@H](C)C(=O)N[C@H](CCCNC(=N)N)C(=O)N[C@H](CCCNC(=N)N)C(=O)N[C@H](CCCNC(=N)N)C(=O)N[C@H](C)C(=O)N[C@H](CCCNC(=N)N)C(N)=O` [comparative compound, etelcalcetide (Ac-c(C) arrrar-NH2) TFA salt], the “survival 48 hours after the administration” value in [5] (3 mg/kg group) is “four survived”; in [5] (10 mg/kg group) it was “one survived”.
